Reference: the NIST ThermoML archive (doi:10.1016/j.jct.2015.12.027)
Numbers after ± are expanded uncertainties.

Tests used:
[1] = refractive index (Na D-line) (dimensionless); xn = mol fraction of the nth substance listed; settings: 81.5 kPa, Liquid, Standard Abbe refractometry
[2] = xn = mol fraction of the nth substance listed; settings: 81.5 kPa, Liquid, Vibrating tube method

ClCCCl [1,2-dichloroethane] + c1ccccc1
Settings | mass density, 293.15 K [kg/m3] | mass density, 303.15 K [kg/m3] | mass density, 313.15 K [kg/m3] | mass density, 323.15 K [kg/m3] | mass density, 333.15 K [kg/m3] | refractive index, 293.15 K | refractive index, 303.15 K | refractive index, 313.15 K | refractive index, 323.15 K | refractive index, 333.15 K
[1], x1 = 0.1002 | – | – | – | – | – | 1.49506 ± 0.01 | 1.48919 ± 0.01 | 1.48273 ± 0.01 | 1.477 ± 0.01 | 1.47091 ± 0.01
[1], x1 = 0.207 | – | – | – | – | – | 1.48849 ± 0.01 | 1.48273 ± 0.01 | 1.47644 ± 0.01 | 1.4708 ± 0.01 | 1.46486 ± 0.01
[1], x1 = 0.3043 | – | – | – | – | – | 1.48263 ± 0.01 | 1.47694 ± 0.01 | 1.47079 ± 0.01 | 1.46522 ± 0.01 | 1.45939 ± 0.01
[1], x1 = 0.4032 | – | – | – | – | – | 1.47684 ± 0.01 | 1.47123 ± 0.01 | 1.46522 ± 0.01 | 1.45971 ± 0.01 | 1.45398 ± 0.01
[1], x1 = 0.5005 | – | – | – | – | – | 1.47135 ± 0.01 | 1.46581 ± 0.01 | 1.45994 ± 0.01 | 1.45449 ± 0.01 | 1.44884 ± 0.01
[1], x1 = 0.5975 | – | – | – | – | – | 1.46605 ± 0.01 | 1.46058 ± 0.01 | 1.45484 ± 0.01 | 1.44943 ± 0.01 | 1.44387 ± 0.01
[1], x1 = 0.7235 | – | – | – | – | – | 1.45935 ± 0.01 | 1.45396 ± 0.01 | 1.44838 ± 0.01 | 1.44302 ± 0.01 | 1.43756 ± 0.01
[1], x1 = 0.8005 | – | – | – | – | – | 1.45531 ± 0.01 | 1.44995 ± 0.01 | 1.44445 ± 0.01 | 1.43912 ± 0.01 | 1.43372 ± 0.01
[1], x1 = 0.8918 | – | – | – | – | – | 1.4505 ± 0.01 | 1.44519 ± 0.01 | 1.43979 ± 0.01 | 1.43449 ± 0.01 | 1.42916 ± 0.01
[1], x1 = 1 | – | – | – | – | – | 1.44472 ± 0.01 | 1.43948 ± 0.01 | 1.43423 ± 0.01 | 1.42897 ± 0.01 | 1.42373 ± 0.01
[2], x1 = 0.1002 | 911.76 ± 10 | 900.68 ± 10 | 889.51 ± 10 | 878.27 ± 10 | 866.86 ± 10 | – | – | – | – | –
[2], x1 = 0.207 | 947.74 ± 10 | 936.23 ± 10 | 924.62 ± 10 | 912.92 ± 10 | 901.08 ± 10 | – | – | – | – | –
[2], x1 = 0.3043 | 981.38 ± 10 | 969.5 ± 10 | 957.49 ± 10 | 945.42 ± 10 | 933.17 ± 10 | – | – | – | – | –
[2], x1 = 0.4032 | 1016.56 ± 10 | 1004.31 ± 10 | 991.92 ± 10 | 979.41 ± 10 | 966.77 ± 10 | – | – | – | – | –
[2], x1 = 0.5005 | 1052.14 ± 10 | 1039.52 ± 10 | 1026.72 ± 10 | 1013.82 ± 10 | 1000.75 ± 10 | – | – | – | – | –
[2], x1 = 0.5975 | 1088.72 ± 10 | 1075.72 ± 10 | 1062.52 ± 10 | 1049.18 ± 10 | 1035.66 ± 10 | – | – | – | – | –
[2], x1 = 0.7235 | 1137.85 ± 10 | 1124.32 ± 10 | 1110.59 ± 10 | 1096.67 ± 10 | 1082.64 ± 10 | – | – | – | – | –
[2], x1 = 0.8005 | 1168.91 ± 10 | 1155.04 ± 10 | 1140.95 ± 10 | 1126.76 ± 10 | 1112.37 ± 10 | – | – | – | – | –
[2], x1 = 0.8918 | 1206.83 ± 10 | 1192.59 ± 10 | 1178.02 ± 10 | 1163.49 ± 10 | 1148.78 ± 10 | – | – | – | – | –
[2], x1 = 1 | 1252.82 ± 10 | 1238.27 ± 10 | 1223.53 ± 10 | 1208.61 ± 10 | 1193.61 ± 10 | – | – | – | – | –
